From ChEMBL document CHEMBL5465560, “Selectivity Literature for EUbOPEN Chemogenomic Library” (2024) come the findings set out here.

Structures are written as SMILES.

Test [1] deals with T1, NUAK family SNF1-like kinase 2 (Homo sapiens) (UniProt Q9H093).
T1 sequence (whole entry): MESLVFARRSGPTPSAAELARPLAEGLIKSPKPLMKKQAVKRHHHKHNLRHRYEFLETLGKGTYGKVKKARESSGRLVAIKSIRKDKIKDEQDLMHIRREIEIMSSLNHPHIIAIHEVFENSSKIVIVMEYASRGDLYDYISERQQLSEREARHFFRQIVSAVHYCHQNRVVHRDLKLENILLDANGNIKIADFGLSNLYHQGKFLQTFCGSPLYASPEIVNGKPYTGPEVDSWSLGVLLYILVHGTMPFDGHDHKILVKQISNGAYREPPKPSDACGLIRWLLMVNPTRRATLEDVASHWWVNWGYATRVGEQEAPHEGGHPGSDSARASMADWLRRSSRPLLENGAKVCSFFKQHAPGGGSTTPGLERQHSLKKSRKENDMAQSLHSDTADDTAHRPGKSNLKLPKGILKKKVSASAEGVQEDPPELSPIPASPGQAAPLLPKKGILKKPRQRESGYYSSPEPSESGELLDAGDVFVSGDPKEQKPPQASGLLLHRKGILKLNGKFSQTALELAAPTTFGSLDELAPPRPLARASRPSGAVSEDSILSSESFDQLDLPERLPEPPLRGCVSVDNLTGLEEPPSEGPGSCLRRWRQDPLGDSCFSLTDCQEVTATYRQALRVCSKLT
The test can be described thus: Selectivity interaction (KinomeScan (DiscoverX)) EUB0000607a NUAK2. The conditions noted are these: at 10 µM.

Test [2] addresses Histone-lysine N-methyltransferase, H3 lysine-36 specific (Homo sapiens) (UniProt Q96L73). Kind of test: Selectivity interaction (Methyltransferase screen (Scintillation proximity assays)) EUB0000255b NSD1. (In general: SPA uses beads or plates that emit light when radiolabelled molecules are held near them.)
For test [3], the target named is T2, Testis-specific serine/threonine-protein kinase 2 (Homo sapiens) (UniProt Q96PF2).
T2 sequence (whole entry): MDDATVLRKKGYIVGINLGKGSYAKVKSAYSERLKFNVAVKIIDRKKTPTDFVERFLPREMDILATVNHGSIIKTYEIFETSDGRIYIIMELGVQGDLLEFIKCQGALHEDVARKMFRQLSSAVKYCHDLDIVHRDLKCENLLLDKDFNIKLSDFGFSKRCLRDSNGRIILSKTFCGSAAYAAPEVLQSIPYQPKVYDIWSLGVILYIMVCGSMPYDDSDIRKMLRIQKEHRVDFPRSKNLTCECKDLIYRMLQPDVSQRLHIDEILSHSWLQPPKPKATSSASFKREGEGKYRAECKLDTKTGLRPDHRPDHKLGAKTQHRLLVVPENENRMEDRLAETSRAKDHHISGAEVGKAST
Kind of test: Selectivity interaction (Kinase panel (Invitrogen)) EUB0000639a TSSK2. The settings on record: at 200 nM.

Test [4] deals with T3, Serine/threonine-protein kinase LATS2 (Homo sapiens) (UniProt Q9NRM7).
T3 sequence (whole entry): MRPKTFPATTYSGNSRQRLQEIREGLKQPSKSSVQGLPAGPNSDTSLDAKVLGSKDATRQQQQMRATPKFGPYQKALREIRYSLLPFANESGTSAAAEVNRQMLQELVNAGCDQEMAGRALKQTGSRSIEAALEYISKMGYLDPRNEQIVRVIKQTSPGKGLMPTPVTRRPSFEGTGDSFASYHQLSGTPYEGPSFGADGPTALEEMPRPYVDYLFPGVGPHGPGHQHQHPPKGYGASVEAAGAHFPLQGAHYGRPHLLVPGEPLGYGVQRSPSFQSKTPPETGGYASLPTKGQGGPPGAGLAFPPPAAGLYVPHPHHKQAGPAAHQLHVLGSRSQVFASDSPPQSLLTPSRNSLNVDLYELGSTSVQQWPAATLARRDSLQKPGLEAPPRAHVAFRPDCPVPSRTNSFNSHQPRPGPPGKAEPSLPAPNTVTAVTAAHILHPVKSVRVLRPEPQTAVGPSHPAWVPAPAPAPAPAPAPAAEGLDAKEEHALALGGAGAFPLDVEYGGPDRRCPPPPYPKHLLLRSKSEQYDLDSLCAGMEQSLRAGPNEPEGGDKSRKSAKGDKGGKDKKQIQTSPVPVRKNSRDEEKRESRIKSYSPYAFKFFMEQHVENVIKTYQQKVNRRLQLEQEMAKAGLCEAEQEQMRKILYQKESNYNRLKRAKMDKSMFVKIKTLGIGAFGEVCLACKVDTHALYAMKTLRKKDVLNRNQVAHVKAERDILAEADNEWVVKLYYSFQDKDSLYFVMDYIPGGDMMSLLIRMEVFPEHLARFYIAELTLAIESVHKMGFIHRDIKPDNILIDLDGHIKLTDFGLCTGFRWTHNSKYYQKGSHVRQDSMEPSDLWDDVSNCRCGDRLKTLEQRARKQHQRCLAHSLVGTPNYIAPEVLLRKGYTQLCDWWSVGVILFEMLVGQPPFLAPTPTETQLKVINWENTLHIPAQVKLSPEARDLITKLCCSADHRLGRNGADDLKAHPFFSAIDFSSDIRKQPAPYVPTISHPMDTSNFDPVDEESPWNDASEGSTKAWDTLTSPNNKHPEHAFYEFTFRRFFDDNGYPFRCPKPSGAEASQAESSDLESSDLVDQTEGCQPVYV
The test can be described thus: Selectivity interaction (KinomeScan (DiscoverX)) EUB0000695a LATS2. The settings on record: at 100 nM.

Test [5] concerns the target Maternal embryonic leucine zipper kinase (Homo sapiens) (UniProt Q14680). Kind of test: Selectivity interaction (KinomeScan (DiscoverX)) EUB0000092b MELK. The settings on record: at 10 µM.

Sequence of Histone-lysine N-methyltransferase, H3 lysine-36 specific (Homo sapiens) (Q96L73 whole entry): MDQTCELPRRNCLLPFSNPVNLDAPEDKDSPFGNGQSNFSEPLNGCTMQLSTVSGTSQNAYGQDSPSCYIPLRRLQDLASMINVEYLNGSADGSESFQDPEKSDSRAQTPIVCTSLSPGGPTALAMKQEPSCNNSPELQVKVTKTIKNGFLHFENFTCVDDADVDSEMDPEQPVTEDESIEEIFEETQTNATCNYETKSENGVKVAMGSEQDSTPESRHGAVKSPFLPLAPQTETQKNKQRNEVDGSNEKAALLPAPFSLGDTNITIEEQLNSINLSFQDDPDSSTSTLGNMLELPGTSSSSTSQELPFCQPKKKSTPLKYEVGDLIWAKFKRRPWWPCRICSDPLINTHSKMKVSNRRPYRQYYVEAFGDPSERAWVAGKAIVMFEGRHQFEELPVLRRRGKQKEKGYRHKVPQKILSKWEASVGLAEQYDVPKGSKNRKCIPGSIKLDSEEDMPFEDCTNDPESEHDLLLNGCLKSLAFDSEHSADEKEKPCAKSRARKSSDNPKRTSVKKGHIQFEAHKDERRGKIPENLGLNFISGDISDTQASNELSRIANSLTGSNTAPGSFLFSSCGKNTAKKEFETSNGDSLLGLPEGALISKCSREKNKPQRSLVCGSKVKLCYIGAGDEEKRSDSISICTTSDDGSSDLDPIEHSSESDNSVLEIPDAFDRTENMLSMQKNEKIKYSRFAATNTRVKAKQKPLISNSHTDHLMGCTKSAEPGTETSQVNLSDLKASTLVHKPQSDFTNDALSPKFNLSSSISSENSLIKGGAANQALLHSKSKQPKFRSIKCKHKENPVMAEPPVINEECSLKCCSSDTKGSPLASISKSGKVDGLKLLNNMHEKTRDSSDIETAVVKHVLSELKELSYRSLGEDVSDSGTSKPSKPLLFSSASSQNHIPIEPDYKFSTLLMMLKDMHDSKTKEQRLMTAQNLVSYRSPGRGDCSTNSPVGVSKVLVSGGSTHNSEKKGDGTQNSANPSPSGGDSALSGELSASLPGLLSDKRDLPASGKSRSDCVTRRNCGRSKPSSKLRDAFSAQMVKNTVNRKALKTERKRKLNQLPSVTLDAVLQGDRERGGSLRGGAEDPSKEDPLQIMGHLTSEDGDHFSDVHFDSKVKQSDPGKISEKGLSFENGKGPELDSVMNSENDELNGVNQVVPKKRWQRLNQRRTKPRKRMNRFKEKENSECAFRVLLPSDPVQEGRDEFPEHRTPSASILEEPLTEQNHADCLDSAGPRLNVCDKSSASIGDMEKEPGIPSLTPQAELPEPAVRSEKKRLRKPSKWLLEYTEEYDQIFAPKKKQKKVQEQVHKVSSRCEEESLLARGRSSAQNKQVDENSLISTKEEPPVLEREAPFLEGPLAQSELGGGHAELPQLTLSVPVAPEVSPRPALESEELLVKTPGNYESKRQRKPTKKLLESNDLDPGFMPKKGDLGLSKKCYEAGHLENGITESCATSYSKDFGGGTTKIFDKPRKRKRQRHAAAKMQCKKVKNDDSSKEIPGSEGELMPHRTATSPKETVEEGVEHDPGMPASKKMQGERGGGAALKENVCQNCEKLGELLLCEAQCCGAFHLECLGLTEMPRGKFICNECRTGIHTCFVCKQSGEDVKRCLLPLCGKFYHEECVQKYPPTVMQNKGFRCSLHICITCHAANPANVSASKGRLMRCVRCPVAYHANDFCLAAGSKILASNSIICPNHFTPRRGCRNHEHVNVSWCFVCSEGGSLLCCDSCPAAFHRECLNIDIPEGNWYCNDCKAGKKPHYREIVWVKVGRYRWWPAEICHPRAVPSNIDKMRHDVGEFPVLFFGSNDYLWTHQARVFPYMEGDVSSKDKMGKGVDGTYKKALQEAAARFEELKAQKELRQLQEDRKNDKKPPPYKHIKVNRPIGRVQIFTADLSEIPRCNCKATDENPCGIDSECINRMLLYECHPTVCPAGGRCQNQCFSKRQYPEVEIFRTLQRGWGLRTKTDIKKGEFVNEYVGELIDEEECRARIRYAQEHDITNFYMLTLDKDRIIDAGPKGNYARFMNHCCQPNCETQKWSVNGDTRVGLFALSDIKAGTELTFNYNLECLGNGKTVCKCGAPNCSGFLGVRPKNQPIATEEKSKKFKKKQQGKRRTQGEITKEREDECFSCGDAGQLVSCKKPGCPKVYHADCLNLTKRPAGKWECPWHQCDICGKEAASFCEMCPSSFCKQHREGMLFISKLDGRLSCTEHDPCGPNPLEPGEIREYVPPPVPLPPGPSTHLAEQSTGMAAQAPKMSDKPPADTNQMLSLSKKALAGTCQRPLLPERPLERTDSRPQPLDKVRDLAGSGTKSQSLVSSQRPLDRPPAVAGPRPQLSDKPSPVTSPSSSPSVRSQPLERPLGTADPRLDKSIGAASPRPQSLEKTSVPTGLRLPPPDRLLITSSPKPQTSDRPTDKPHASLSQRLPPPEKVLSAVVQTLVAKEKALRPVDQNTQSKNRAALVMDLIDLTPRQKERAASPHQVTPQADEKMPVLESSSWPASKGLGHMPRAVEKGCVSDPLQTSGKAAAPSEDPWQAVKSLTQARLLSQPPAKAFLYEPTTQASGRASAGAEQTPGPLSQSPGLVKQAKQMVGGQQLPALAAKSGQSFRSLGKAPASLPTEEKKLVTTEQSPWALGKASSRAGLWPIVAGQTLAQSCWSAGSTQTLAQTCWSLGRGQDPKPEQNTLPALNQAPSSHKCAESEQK
Sequence of Maternal embryonic leucine zipper kinase (Homo sapiens) (Q14680 whole entry, looked up): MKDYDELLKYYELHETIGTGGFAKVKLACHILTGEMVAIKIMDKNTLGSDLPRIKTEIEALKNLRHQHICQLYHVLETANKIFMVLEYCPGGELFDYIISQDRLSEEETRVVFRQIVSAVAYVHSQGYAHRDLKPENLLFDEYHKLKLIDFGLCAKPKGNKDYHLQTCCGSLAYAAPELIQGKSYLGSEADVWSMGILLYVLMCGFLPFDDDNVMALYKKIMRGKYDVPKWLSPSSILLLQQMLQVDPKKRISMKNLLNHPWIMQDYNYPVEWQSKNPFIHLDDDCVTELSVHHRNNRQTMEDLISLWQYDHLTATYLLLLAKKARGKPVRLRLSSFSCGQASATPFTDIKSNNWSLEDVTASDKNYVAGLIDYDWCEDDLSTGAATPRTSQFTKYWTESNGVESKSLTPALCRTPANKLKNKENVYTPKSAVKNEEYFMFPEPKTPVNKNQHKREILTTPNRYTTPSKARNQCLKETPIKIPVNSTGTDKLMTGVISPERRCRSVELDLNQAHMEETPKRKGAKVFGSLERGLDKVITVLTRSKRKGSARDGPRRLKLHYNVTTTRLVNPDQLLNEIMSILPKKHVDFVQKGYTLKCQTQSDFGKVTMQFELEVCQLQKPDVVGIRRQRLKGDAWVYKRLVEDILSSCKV

`CNC(=O)Nc1ccc(-c2nc(N3CC4CCC(C3)O4)c3cnn(C4CCC5(CC4)OCCO5)c3n2)cc1`: the % of control in test [1] came out at 100%.

Take `COCCN1CCC(c2cc(CN(C)C(=O)c3cccc(Oc4ccccc4)c3)ccn2)CC1`: the figures for the % activity in test [2] (at 1 µM) and in test [2] (at 10 µM) were above 95% and above 90%, respectively.

The molecule `CC[C@@H]1[C@H](F)C(=O)N[C@@H]1COc1nccc2cc(C(N)=O)c(OC)cc12` [ZIMLOVISERTIB] yielded a % of inhibition in test [3] of 8.34%.

`Cc1cc(F)c(C(=O)Nc2cccc(-c3nncn3C(C)C)n2)cc1-n1cnc(C2CC2)c1`: the % of control in test [4] is 89%.

Consider `CCC(=O)N1CCN(c2ccc(-n3c(=O)ccc4cnc5ccc(-c6cnc7ccccc7c6)cc5c43)cc2C(F)(F)F)CC1`, for which the % of control in test [5] turned out to be 50%.
